Key:
5-HT2B receptor = target: T1, 5-HT2B receptor (Homo sapiens, UniProt P41595); assay: Calcium mobilization assay, agonist format, 5-HT2B; format: cell-based; details: % activity relative to control ligand, read-out: 5-HT2B agonist efficacy @5 µM
T1 construct: host or cells: unnamed cell lines
Protocol: (§1) Protocol—in vitro testing at select 5-hydroxytryptamine (5-HT; serotonin) receptors was conducted.
(§2) • 1. Cell lines were expanded from freezer stocks according to standard procedures. • 2. Cells were seeded in a total volume of 20 μL into black-walled, clear-bottom, Poly-D-lysine coated 384-well microplates and incubated at 37° C. for the appropriate time prior to testing.
(§3) • 1. Assays were performed in 1× Dye Loading Buffer consisting of 1× Dye, 1× Additive A and • 2.5 mM Probenecid in HBSS/20 mM Hepes. Probenicid was prepared fresh. • 2. Cells were loaded with dye prior to testing. Media was aspirated from cells and replaced with 20 μL Dye Loading Buffer. • 3. Cells were incubated for 30-60 minutes at 37° C.
(§4) • 1. For agonist determination, cells were incubated with sample to induce response. • 2. After dye loading, cells were removed from the incubator and 10 μL HBSS/20 mM Hepes was added. 3× vehicle was included in the buffer when performing agonist dose curves to define the EC80 for subsequent antagonist assays. Cells were incubated for 30 minutes at room temperature in the dark to equilibrate plate temperature. • 3. Intermediate dilution of sample stocks was performed to generate 4× sample in assay buffer. • 4. Compound agonist activity was measured on a FLIPR Tetra (MDS). Calcium mobilization was monitored for 2 minutes and 10 μL 4× sample in HBSS/20 mM Hepes was added to the cells 5 seconds into the assay.
(§5) • 1. Compound activity was analyzed using CBIS data analysis suite (ChemInnovation, CA). • 2. For agonist mode assays, percentage activity is calculated using the following formula: % Activity=100%×(mean RFU of test sample−mean RFU of vehicle control)/(mean MAX RFU control ligand −mean RFU of vehicle control). • 3. For positive allosteric mode assays, percentage modulation was calculated using the following formula: % Modulation=100%×((mean RFU of test sample−mean RFU of EC20 control)/(mean RFU of MAX control ligand −mean RFU of EC20 control)). • 4. For antagonist and negative allosteric modulation mode assays, percentage inhibition is calculated using the following formula: % Inhibition=100%×(1−(mean RFU of test sample−mean RFU of vehicle control)/(mean RFU of EC80 control−mean RFU of vehicle control)).

5-HT2A receptor [1] = target: T2, 5-HT2A receptor (Homo sapiens, UniProt P28223); assay: Calcium mobilization assay, antagonist format, 5-HT2A; format: cell-based; details: @100 nM; agonist challenge at EC80
T2 construct: host or cells: unnamed cell lines
T2 sequence (P28223 whole entry): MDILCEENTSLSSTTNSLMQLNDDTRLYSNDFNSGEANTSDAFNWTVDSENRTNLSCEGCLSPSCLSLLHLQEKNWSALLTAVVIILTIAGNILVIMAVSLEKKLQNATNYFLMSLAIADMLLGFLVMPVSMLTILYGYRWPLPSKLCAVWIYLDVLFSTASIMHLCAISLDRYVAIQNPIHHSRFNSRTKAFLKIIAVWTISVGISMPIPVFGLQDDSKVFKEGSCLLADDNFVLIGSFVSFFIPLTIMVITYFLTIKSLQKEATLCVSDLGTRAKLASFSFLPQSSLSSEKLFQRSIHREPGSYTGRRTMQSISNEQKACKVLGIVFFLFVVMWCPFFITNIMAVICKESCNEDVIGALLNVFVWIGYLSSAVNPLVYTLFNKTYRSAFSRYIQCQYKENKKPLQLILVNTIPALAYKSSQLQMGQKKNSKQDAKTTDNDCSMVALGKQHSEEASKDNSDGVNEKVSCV
Protocol: as §1, §2, §3
(§6) • 1. For antagonist determination, cells were pre-incubated with sample followed by agonist challenge at the EC80 concentration. • 2. Intermediate dilution of sample stocks was performed to generate 3× sample in assay buffer. • 3. After dye loading, cells were removed from the incubator and 10 μL 3× sample was added. Cells were incubated for 30 minutes at room temperature in the dark to equilibrate plate temperature. Vehicle concentration was 1%. • 4. Compound antagonist activity was measured on a FLIPR Tetra (MDS). Calcium mobilization was monitored for 2 minutes and 10 μL EC80 agonist in HBSS/20 mM Hepes was added to the cells 5 seconds into the assay.
as §5
Compounds were evaluated as 5-HT2A antagonists at 100 nM (one hundred nanomolar), or may be evaluated at a higher concentration. For research comparative purposes, a literature compound—(R)-1-(5-methoxy-1H-indol-1-yl)-N,N-dimethylpropan-2-amine (AAZ-A-154) (Cell 2021, 184, 2779-2792.e18)—was included in the screening assays. Additionally, 5-hydroxytryptamine/serotonin (5-HT) was included in the screening assay as a positive control agonist, and Altanserin HCl was included as a 5-HT2A antagonist positive control.

5-HT2A receptor [2] = target: T2, 5-HT2A receptor; assay: Calcium mobilization assay, agonist format, 5-HT2A; format: cell-based; details: % activity relative to control ligand, read-out: 5-HT2A agonist efficacy @10 µM
Protocol: as §1, §2, §3, §4, §5

5-HT2C receptor = target: T3, 5-HT2C receptor (Homo sapiens, UniProt P28335); assay: Calcium mobilization assay, antagonist format, 5-HT2C; format: cell-based; details: for inhibition at 10 µM: agonist challenge at EC80; for antagonism of the 5-HT2C receptor: 10 μM (ten micromolar)
T3 construct: host or cells: unnamed cell lines
T3 sequence (P28335 33-458): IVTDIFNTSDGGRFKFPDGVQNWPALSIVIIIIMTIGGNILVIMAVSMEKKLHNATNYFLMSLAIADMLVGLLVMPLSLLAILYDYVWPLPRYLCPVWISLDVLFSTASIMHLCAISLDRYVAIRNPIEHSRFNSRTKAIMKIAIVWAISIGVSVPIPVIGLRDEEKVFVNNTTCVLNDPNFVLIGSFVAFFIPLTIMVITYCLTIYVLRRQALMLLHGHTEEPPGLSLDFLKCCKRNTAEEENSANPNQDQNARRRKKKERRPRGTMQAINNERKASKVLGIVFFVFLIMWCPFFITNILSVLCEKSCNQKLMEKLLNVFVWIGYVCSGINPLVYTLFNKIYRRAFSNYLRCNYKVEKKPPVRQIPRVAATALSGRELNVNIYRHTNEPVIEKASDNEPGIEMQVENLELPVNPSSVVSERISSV
Protocol: as §1, §2, §3, §6, §5
[…] For research comparative purposes, a literature compound—(R)-1-(5-methoxy-1H-indol-1-yl)-N,N-dimethylpropan-2-amine (AAZ-A-154) (Cell 2021, 184, 2779-2792.e18)—was included in the screening assays. Additionally, 5-hydroxytryptamine/serotonin (5-HT) was included in the screening assay as a positive control agonist, and SB242084 was used in the screening assay as a literature 5-HT2C antagonist positive control. […] Compounds 2, 3 and 93 each achieved greater than 75% antagonism of the 5-HT2C receptor, with compounds 3 and 93 achieving approximately 98% and 97% antagonism, respectively.

5HT2A sensor = details: general statement on known hallucinogens and non-hallucinogenic congeners; cited from earlier work
[3] = Metabolic stability in human liver microsomes; format: in vitro ADME; details: for difference in half-life and intrinsic clearance compared with reference compound (R)-1-(5-methoxy-1H-indol-1-yl)-N,N-dimethylpropan-2-amine / microsomal CLint at 1 μM: human liver microsomes; for difference in half-life and intrinsic clearance compared with reference compound (R)-1-(5-methoxy-1H-indol-1-yl)-N,N-dimethylpropan-2-amine: comment on Table 2; for half-life at 1 μM / microsomal CLint at 1 μM / CLint scaled at 1 μM: liver microsomes (pooled); for half-life at 1 μM: human liver microsomes 0.5 mg/mL, test compound 1.0 μM, 37° C., NADPH; for microsomal CLint at 1 μM: intrinsic clearance = 0.693/T1/2/mg microsome protein per mL, read-out: CLint(mic); for CLint scaled at 1 μM: human, scaled from CLint(mic) with 45 mg microsomal protein/g liver and 20 g liver/kg
Protocol: The test compound at 1.0 μM in singlet, or positive controls including Testosterone (CYP3A4 substrate), Propafenone (CYP2D6 substrate) or Diclofenac (CYP2C9 substrate) was incubated with the liver microsomes (Corning, Xenotech, or other credible vendor, pooled from multiple donors) at 0.5 mg/mL, respectively. The mixture was warmed up at 37° C. for 10 minutes and the reactions were initiated by the addition of a NADPH regenerating system (˜1.0 mM). The test compound incubated with the liver microsomes at 37° C. without the NADPH regenerating system served as the negative control reaction.
The reaction samples were removed at multiple time points (such as 0, 5, 15, 30, 45 and 60 minutes) and the sample without NADPH (NCF) was removed at 60 minutes. All the samples were immediately mixed with cold acetonitrile containing internal standard (IS) to stop the reaction.
Samples were analyzed by LC/MS/MS and the disappearance of test compound were assessed base on peak area ratios of analyte/IS (no standard curve). The microsomal intrinsic clearance and T1/2 values were calculated using the following equation: […]
The microsomal intrinsic clearance and T1/2 values were calculated using the following equation: […]
In these experiments the comparator compound was a suitable reference standard. In one embodiment the comparator compound was (R)-1-(5-methoxy-1H-indol-1-yl)-N,N-dimethylpropan-2-amine.

T1 sequence (P41595 whole entry): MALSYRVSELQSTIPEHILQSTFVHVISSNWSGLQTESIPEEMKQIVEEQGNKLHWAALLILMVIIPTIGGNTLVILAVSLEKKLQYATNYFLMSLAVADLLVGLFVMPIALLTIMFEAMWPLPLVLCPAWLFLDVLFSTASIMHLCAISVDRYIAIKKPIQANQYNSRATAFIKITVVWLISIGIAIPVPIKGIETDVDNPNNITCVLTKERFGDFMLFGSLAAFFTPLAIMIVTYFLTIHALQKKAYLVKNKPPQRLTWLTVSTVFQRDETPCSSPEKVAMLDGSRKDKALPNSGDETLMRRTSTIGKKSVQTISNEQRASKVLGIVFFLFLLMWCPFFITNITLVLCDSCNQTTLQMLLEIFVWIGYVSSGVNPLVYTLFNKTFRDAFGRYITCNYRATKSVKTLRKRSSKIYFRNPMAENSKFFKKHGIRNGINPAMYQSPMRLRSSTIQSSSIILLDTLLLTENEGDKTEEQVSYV

SMILES | activation at 5 µM (5-HT2B receptor) | inhibition at 0.1 µM (5-HT2A receptor [1]) | activation at 10 µM (5-HT2A receptor [2]) | inhibition at 10 µM (5-HT2C receptor) | activation of the 5HT2A sensor assay in agonist mode (5HT2A sensor) | also measured
COc1ccn2c(CC(C)N(C)C)cnc2c1 (racemic) [Compound 91, (R/S)-1-(7-methoxyimidazo[1,2-a]pyridin-3-yl)-N,N-dimethylpropan-2-amine] | 1% | -3.3% | 0.6% | 6.1% |  | 
COc1ccn2c(CC(C)N(C)C)ncc2c1 (racemic) [Compound 92, (R/S)-1-(7-methoxyimidazo[1,5-a]pyridin-3-yl)-N,N-dimethylpropan-2-amine] | 2% | 1.6% | 0.3% | 7.2% |  | 
CC(Cc1ncn2cc(F)ccc12)N(C)C (racemic) [Compound 93, (R/S)-1-(6-fluoroimidazo[1,5-a]pyridin-1-yl)-N,N-dimethylpropan-2-amine] | 2.7% | 5.7% | 1.8% | 97.1% |  | antagonism of the 5-HT2C receptor (5-HT2C receptor): ~97%
CCN(CC)C(=O)[C@@H]1C=C2c3cccc4[nH]c(Br)c(c34)C[C@H]2N(C)C1 [BOL148] |  |  |  |  | do not activate the 5HT2A sensor assay in agonist mode | 
C[C@H](Cn1ccc2cc(OC3CC3)ccc21)N(C)C [Compound 1, (R)-1-(5-cyclopropoxy-1H-indol-1-yl)-N,N-dimethylpropan-2-amine] | -0.7% | -13.2% | -1.4% | 20.7% |  | 
C[C@H](Cn1ccc2cc(S(F)(F)(F)(F)F)ccc21)N(C)C [Compound 2, (2R)-N,N-dimethyl-1-[5-(pentafluoro-λ^6-sulfanyl)indol-l-yl]propan-2-amine] | 6.4% | -0.8% | 4.4% | 76.4% |  | 
C[C@H](Cn1ccc2c3c(ccc21)OCCC3)N(C)C [Compound 3, (R)-1-(8,9-dihydropyrano[3,2-e]indol-3(7H)-yl)-N,N-dimethylpropan-2-amine] | 1% | -7.3% | 9.7% | 98.1% |  | antagonism of the 5-HT2C receptor (5-HT2C receptor): approximately 98%
[2H]C([2H])([2H])N(C([2H])([2H])[2H])[C@]([2H])(C([2H])([2H])[2H])C([2H])([2H])n1ccc2cc(OC)ccc21 [Compound 6, (2R)-1,1,1,2,3,3-hexadeuterio-3-(5-methoxyindol-1-yl)-N,N-bis(trideuteriomethyl)propan-2-amine] |  |  |  |  |  | difference in half-life and intrinsic clearance compared with reference compound (R)-1-(5-methoxy-1H-indol-1-yl)-N,N-dimethylpropan-2-amine [3]: significant and beneficial differences in half-life and intrinsic clearance; half-life at 1 μM [3]: 1.82 h; microsomal CLint at 1 μM [3]: 12.7 µL/min/mg; CLint scaled at 1 μM [3]: 11.4 mL/min/kg
CCN(CC)CCc1c[nH]c2cc(F)ccc12 [Compound 6-F-DET] |  |  |  |  | do not activate the 5HT2A sensor assay in agonist mode | 
COc1ccc2c(CCN(C)C)c[nH]c2c1 [Compound 6-MeO-DMT] |  |  |  |  | do not activate the 5HT2A sensor assay in agonist mode | 
[2H]C([2H])([2H])Oc1ccc2c(ccn2C([2H])([2H])[C@]([2H])(N(C)C)C([2H])([2H])[2H])c1 [Compound 151, (2R)-1,1,1,2,3,3-hexadeuterio-N,N-dimethyl-3-[5-(trideuteriomethoxy)indol-1-yl]propan-2-amine] |  |  |  |  |  | difference in half-life and intrinsic clearance compared with reference compound (R)-1-(5-methoxy-1H-indol-1-yl)-N,N-dimethylpropan-2-amine [3]: most significant difference in half-life and intrinsic clearance ratio; half-life at 1 μM [3]: 2 h; microsomal CLint at 1 μM [3]: 11.5 µL/min/mg; CLint scaled at 1 μM [3]: 10.4 mL/min/kg
[2H]C([2H])([2H])Oc1ccc2c(ccn2C([2H])([2H])[C@]([2H])(N(C([2H])([2H])[2H])C([2H])([2H])[2H])C([2H])([2H])[2H])c1 [Compound 152, (2R)-1,1,1,2,3,3-hexadeuterio-3-[5-(trideuteriomethoxy)indol-1-yl]-N,N-bis(trideuteriomethyl)propan-2-amine] |  |  |  |  |  | difference in half-life and intrinsic clearance compared with reference compound (R)-1-(5-methoxy-1H-indol-1-yl)-N,N-dimethylpropan-2-amine [3]: significant and beneficial differences in half-life and intrinsic clearance; half-life at 1 μM [3]: 1.91 h; microsomal CLint at 1 μM [3]: 12.4 µL/min/mg; CLint scaled at 1 μM [3]: 11.1 mL/min/kg
CN(C)CCc1c[nH]c2ccccc12 [DMT, N,N-dimethyltryptamine] |  |  |  |  | activate the 5HT2A sensor assay in agonist mode | 
COc1cc(CC(C)N)c(OC)cc1I (stereo not shown) [DOI, 2,5-dimethoxy-4-iodoamphetamine] |  |  |  |  | activate the 5HT2A sensor assay in agonist mode | 
O=C(c1ccc(F)cc1)C1CCN(CCn2c(=O)[nH]c3ccccc3c2=O)CC1 [Ketanserin, ketanserin] |  |  |  |  | do not activate the 5HT2A sensor assay in agonist mode | 
CN[C@H](C)Cc1ccc2c(c1)OCO2 [L-MDMA] |  |  |  |  | do not activate the 5HT2A sensor assay in agonist mode | 
CCN(CC)C(=O)[C@@H]1C=C2c3cccc4[nH]cc(c34)C[C@H]2N(C)C1 [LSD, lysergic acid diethylamide] |  |  |  |  | activate the 5HT2A sensor assay in agonist mode | 

From patent US20260138948A1, “N-SUBSTITUTED INDOLES AS 5-HYDROXYTRYPTAMINE (5-HT) SEROTONIN RECEPTOR AGONISTS AND ANTAGONISTS” (Terran Biosciences Inc., priority 2021, published 2026)
